From PubChem BioAssay (NCI)
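Where inhibition never reached the appropriate level, the endpoint shown equals the highest concentration tested. Otherwise, values were interpolated linearly from a five-concentration, 48-hour dose response in 96-well plates. At the GI50, growth is halved. At the TGI there is no net growth.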

Tests used:
Assay in all cases: NCI anticancer screen, dose series, 48 h
[1] = system: 786-0 renal
[2] = system: A498 renal
[3] = system: A549 NSCLC
[4] = system: ACHN renal
[5] = system: BT-549 breast
[6] = system: CAKI-1 renal
[7] = system: CCRF-CEM leukemia
[8] = system: COLO 205 colon
[9] = system: DU-145 prostate
[10] = system: EKVX NSCLC
[11] = system: HCC-2998 colon
[12] = system: HCT-116 colon
[13] = system: HCT-15 colon
[14] = system: HL-60(TB) leukemia
[15] = system: HOP-62 NSCLC
[16] = system: HOP-92 NSCLC
[17] = system: HS 578T breast
[18] = system: IGROV1 ovarian
[19] = system: K-562 leukemia
[20] = system: KM12 colon
[21] = system: M14 melanoma
[22] = system: MALME-3M melanoma
[23] = system: MCF7 breast
[24] = system: MDA-MB-231 breast
[25] = system: MDA-MB-435
[26] = system: MDA-MB-468 breast
[27] = system: MOLT-4 leukemia
[28] = system: NCI-H226 lung
[29] = system: NCI-H23 lung
[30] = system: NCI-H460 lung
[31] = system: NCI-H522 lung
[32] = system: NCI/ADR-RES ovarian
[33] = system: OVCAR-3 ovarian
[34] = system: OVCAR-4 ovarian
[35] = system: OVCAR-5 ovarian
[36] = system: OVCAR-8 ovarian
[37] = system: PC-3 prostate
[38] = system: RPMI-8226 leukemia
[39] = system: RXF 393 renal
[40] = system: SF-268 CNS
[41] = system: SF-295 CNS
[42] = system: SF-539 CNS
[43] = system: SK-MEL-2 melanoma
[44] = system: SK-MEL-28 melanoma
[45] = system: SK-MEL-5 melanoma
[46] = system: SK-OV-3 ovarian
[47] = system: SN12C renal
[48] = system: SNB-19 CNS
[49] = system: SNB-75 CNS
[50] = system: SR leukemia
[51] = system: SW-620 colon
[52] = system: T-47D breast
[53] = system: TK-10 renal
[54] = system: U251 CNS
[55] = system: UACC-257 melanoma
[56] = system: UACC-62 melanoma
[57] = system: UO-31 renal

For `O=C1CCC(N2C(=O)c3cccc(NCCCCCC(=O)N4CCN(c5ccc6nc7c(nc6c5C(F)(F)F)C(=O)c5ncccc5C7=O)CC4)c3C2=O)C(=O)N1` (centres undefined), the GI50 [1] was 1.59 µM, the TGI [1] was 4.58 µM and the GI50 [2] was 1.2 µM. For the same compound, the TGI [2] was 2.29 µM, the GI50 [3] was 0.193 µM and the TGI [3] was 0.712 µM. It also gave a GI50 [4] of 1.09 µM, a TGI [4] of 2.53 µM and a GI50 [5] of 0.244 µM. For the same compound, the TGI [5] was 1.46 µM, the GI50 [6] was 0.889 µM and the TGI [6] was 2.2 µM. It also gave a GI50 [7] of 1.97 µM, a TGI [7] of over 70.5 µM and a GI50 [8] of 0.175 µM. For the same compound, the TGI [8] was 0.475 µM, the GI50 [9] was 0.163 µM and the TGI [9] was 0.398 µM. It also gave a GI50 [10] of 1.3 µM, a TGI [10] of 3.92 µM and a GI50 [11] of 0.275 µM. The TGI [11] was 1.04 µM, the GI50 [12] was 1.78 µM and the TGI [12] was 4.62 µM. For the same compound, the GI50 [13] was 0.0819 µM, the TGI [13] was 0.813 µM and the GI50 [14] was 0.919 µM. The TGI [14] was over 18.8 µM, the GI50 [15] was 0.321 µM and the TGI [15] was 1.4 µM. For the same compound, the GI50 [16] was 1.2 µM, the TGI [16] was 5.81 µM and the GI50 [17] was 0.946 µM. It also gave a TGI [17] of 3.92 µM, a GI50 [18] of 0.827 µM and a TGI [18] of 1.83 µM. It also gave a GI50 [19] of 1.01 µM, a TGI [19] of over 70.5 µM and a GI50 [20] of 1.43 µM. It also gave a TGI [20] of 3.59 µM, a GI50 [21] of 0.13 µM and a TGI [21] of 0.292 µM. The GI50 [22] was 0.0762 µM, the TGI [22] was 0.541 µM and the GI50 [23] was 0.197 µM. It also gave a TGI [23] of 0.705 µM, a GI50 [24] of 0.0234 µM and a TGI [24] of 2.5 µM. For the same compound, the GI50 [25] was 0.555 µM, the TGI [25] was 1.54 µM and the GI50 [26] was 1.18 µM. For the same compound, the TGI [26] was 2.68 µM, the GI50 [27] was 1.5 µM and the TGI [27] was over 17.8 µM. The GI50 [28] was 0.16 µM, the TGI [28] was 1.1 µM and the GI50 [29] was 0.138 µM. The TGI [29] was 0.315 µM, the GI50 [30] was 0.141 µM and the TGI [30] was 0.287 µM. It also gave a GI50 [31] of 1.02 µM, a TGI [31] of 2.2 µM and a GI50 [32] of 2.07 µM. It also gave a TGI [32] of 20.8 µM, a GI50 [33] of 1.19 µM and a TGI [33] of 3.21 µM. It also gave a GI50 [34] of 1.49 µM, a TGI [34] of 4.83 µM and a GI50 [35] of 1.01 µM. The TGI [35] was 2.17 µM, the GI50 [36] was 1.3 µM and the TGI [36] was 3.67 µM. It also gave a GI50 [37] of 0.376 µM, a TGI [37] of over 19 µM and a GI50 [38] of 0.741 µM. The TGI [38] was 4.54 µM, the GI50 [39] was 0.981 µM and the TGI [39] was 2.06 µM. It also gave a GI50 [40] of 1.36 µM, a TGI [40] of 5.05 µM and a GI50 [41] of 0.15 µM. For the same compound, the TGI [41] was 0.384 µM, the GI50 [42] was 1 µM and the TGI [42] was 1.95 µM. For the same compound, the GI50 [43] was 1.03 µM, the TGI [43] was 2.16 µM and the GI50 [44] was 0.386 µM. The TGI [44] was 1.29 µM, the GI50 [45] was 0.296 µM and the TGI [45] was 1.04 µM. It also gave a GI50 [46] of 0.768 µM, a TGI [46] of 2.2 µM and a GI50 [47] of 0.192 µM. For the same compound, the TGI [47] was 0.738 µM, the GI50 [48] was 0.149 µM and the TGI [48] was 0.393 µM. It also gave a GI50 [49] of 0.743 µM, a TGI [49] of 1.59 µM and a GI50 [50] of 0.227 µM. For the same compound, the TGI [50] was over 70.5 µM, the GI50 [51] was 0.368 µM and the TGI [51] was 1.81 µM. The GI50 [52] was 1.56 µM, the TGI [52] was 5.29 µM and the GI50 [53] was 1.92 µM. It also gave a TGI [53] of 5.67 µM, a GI50 [54] of 0.177 µM and a TGI [54] of 0.577 µM. The GI50 [55] was 1.06 µM, the TGI [55] was 2.17 µM and the GI50 [56] was 0.529 µM. The TGI [56] was 1.54 µM, the GI50 [57] was 0.892 µM and the TGI [57] was 1.81 µM.
